Results from the supplement of paper PMC11619387.
In brackets after ≈: the same amount, converted by molar mass.

Legend:
[1] = test system: Pseudomonas aeruginosa PAO1-Xen41; assay: Emax, maximal drug effect on net growth rate (fitted lower asymptote) (per hour (slope of log luminescence)); higher = weaker maximal killing (less negative)
Method: (§1)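 Time-kill assays of bioluminescent P. aeruginosa PAO1-Xen41 (start ~5e6 CFU/mL) in 96-well plates at 37 °C, 150 rpm. Luminescence was read hourly for 20 h in cation-adjusted Mueller-Hinton broth, either non-conditioned (MH broth with or without supplements) or conditioned by one of 13 CF-associated species, then filter-sterilised and nutrient-replenished. Growth/kill rates came from log-linear regression of the exponential phase at 9-10 antibiotic concentrations, and Hill (Emax) models were fitted with drc for each replicate.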

[2] = test system: Pseudomonas aeruginosa PAO1-Xen41; assay: EC50 of growth/kill rate concentration-effect curve
Method: as §1

[3] = test system: Pseudomonas aeruginosa PAO1-Xen41; assay: Hill coefficient of concentration-effect curve (unitless); higher = steeper concentration-effect curve
Method: as §1

C[C@@H]1O[C@@H]1P(=O)(O)O [fosfomycin]
Conditions | EC50, [2] [µg/mL] | Emax, [1] | Hill coefficient, [3]
medium (conditioned by secondary species or non-conditioned control): A. baumannii | 149 (≈ 1080 µM) | -0.132 | 2.21
medium (conditioned by secondary species or non-conditioned control): A. fumigatus | 16.6 (≈ 120 µM) | -0.117 | 1.48
medium (conditioned by secondary species or non-conditioned control): A. xylosoxidans | 201 (≈ 1450 µM) | -0.189 | 2.09
medium (conditioned by secondary species or non-conditioned control): B. cepacia | 81.7 (≈ 592 µM) | -0.0776 | 3.68
medium (conditioned by secondary species or non-conditioned control): C. albicans | 10.6 (≈ 77 µM) | -0.134 | 1.72
medium (conditioned by secondary species or non-conditioned control): H. influenzae | 72.3 (≈ 524 µM) | -0.354 | 1.57
medium (conditioned by secondary species or non-conditioned control): M. abcessus | 43.8 (≈ 318 µM) | -0.177 | 2.3
medium (conditioned by secondary species or non-conditioned control): M. avium | 34.4 (≈ 249 µM) | -0.196 | 1.9
medium (conditioned by secondary species or non-conditioned control): M. catarrhalis | 66.6 (≈ 483 µM) | -0.126 | 2.47
medium (conditioned by secondary species or non-conditioned control): MH broth | 22.4 (≈ 163 µM) | -0.173 | 2.99
medium (conditioned by secondary species or non-conditioned control): MH broth + ADC | 23.6 | -0.194 | 2.25
medium (conditioned by secondary species or non-conditioned control): MH broth + LHB + NAD | 47 | -0.233 | 1.88
medium (conditioned by secondary species or non-conditioned control): MH broth + glucose | 17.7 | -0.136 | 1.47
medium (conditioned by secondary species or non-conditioned control): R. mannitolilytica | 65.4 (≈ 473 µM) | -0.111 | 3.11
medium (conditioned by secondary species or non-conditioned control): S. aureus | 47.35 (≈ 343 µM) | -0.122 | 3.29
medium (conditioned by secondary species or non-conditioned control): S. maltophilia | 81.9 (≈ 593 µM) | -0.102 | 2.83
medium (conditioned by secondary species or non-conditioned control): S. pneumoniae | 45.9 (≈ 332 µM) | -0.276 | 1.54

C[C@@H](O)[C@H]1C(=O)N2C(C(=O)O)=C(S[C@@H]3CN[C@H](C(=O)N(C)C)C3)[C@H](C)[C@H]12 [meropenem]
Conditions | EC50, [2] [µg/mL] | Emax, [1] | Hill coefficient, [3]
medium (conditioned by secondary species or non-conditioned control): A. baumannii | 2.68 (≈ 6.99 µM) | -0.0771 | 6.64
medium (conditioned by secondary species or non-conditioned control): A. fumigatus | 0.389 (≈ 1.01 µM) | -0.093 | 7.42
medium (conditioned by secondary species or non-conditioned control): A. xylosoxidans | 1.25 (≈ 3.26 µM) | -0.0831 | 4.28
medium (conditioned by secondary species or non-conditioned control): B. cepacia | 0.916 (≈ 2.39 µM) | -0.0593 | 12.1
medium (conditioned by secondary species or non-conditioned control): C. albicans | 0.784 (≈ 2.04 µM) | -0.12 | 3.15
medium (conditioned by secondary species or non-conditioned control): H. influenzae | 0.6259 (≈ 1.63 µM) | -0.172 | 2.15
medium (conditioned by secondary species or non-conditioned control): M. abcessus | 0.609 (≈ 1.59 µM) | -0.0816 | 5.75
medium (conditioned by secondary species or non-conditioned control): M. avium | 0.337 (≈ 0.878 µM) | -0.0509 | 7.81
medium (conditioned by secondary species or non-conditioned control): M. catarrhalis | 1.91 (≈ 4.99 µM) | -0.0746 | 6.15
medium (conditioned by secondary species or non-conditioned control): MH broth | 0.612 (≈ 1.6 µM) | -0.0947 | 4.27
medium (conditioned by secondary species or non-conditioned control): MH broth + ADC | 0.2684 | -0.0675 | 15.3
medium (conditioned by secondary species or non-conditioned control): MH broth + LHB + NAD | 0.663 | -0.125 | 3.73
medium (conditioned by secondary species or non-conditioned control): MH broth + glucose | 0.628 | -0.0923 | 3
medium (conditioned by secondary species or non-conditioned control): R. mannitolilytica | 0.6203 (≈ 1.62 µM) | -0.0818 | 8.16
medium (conditioned by secondary species or non-conditioned control): S. aureus | 0.7071 (≈ 1.84 µM) | -0.0714 | 10
medium (conditioned by secondary species or non-conditioned control): S. maltophilia | 1.18 (≈ 3.07 µM) | -0.0918 | 3.29
medium (conditioned by secondary species or non-conditioned control): S. pneumoniae | 0.938 (≈ 2.45 µM) | -0.189 | 4.34

CN(C)c1ccc(O)c2c1C[C@H]1C[C@H]3[C@H](N(C)C)C(O)=C(C(N)=O)C(=O)[C@@]3(O)C(O)=C1C2=O [minocycline]
Conditions | EC50, [2] [µg/mL] | Emax, [1] | Hill coefficient, [3]
medium (conditioned by secondary species or non-conditioned control): A. baumannii | 41.5 (≈ 90.7 µM) | -0.0946 | 3.37
medium (conditioned by secondary species or non-conditioned control): A. fumigatus | 4.51 (≈ 9.87 µM) | -0.12 | 5.95
medium (conditioned by secondary species or non-conditioned control): A. xylosoxidans | 29.9 (≈ 65.4 µM) | -0.193 | 6.19
medium (conditioned by secondary species or non-conditioned control): B. cepacia | 65.8 (≈ 144 µM) | -0.464 | 1.13
medium (conditioned by secondary species or non-conditioned control): C. albicans | 7.19 (≈ 15.7 µM) | -0.223 | 5.63
medium (conditioned by secondary species or non-conditioned control): H. influenzae | 9.75 (≈ 21.3 µM) | -0.198 | 1.67
medium (conditioned by secondary species or non-conditioned control): M. abcessus | 81 (≈ 177 µM) | -0.72 | 0.784
medium (conditioned by secondary species or non-conditioned control): M. avium | 6.33 (≈ 13.8 µM) | -0.13 | 5.77
medium (conditioned by secondary species or non-conditioned control): M. catarrhalis | 21.1 (≈ 46.2 µM) | -0.0725 | 3.92
medium (conditioned by secondary species or non-conditioned control): MH broth | 18.7 (≈ 40.9 µM) | -0.41 | 1.16
medium (conditioned by secondary species or non-conditioned control): MH broth + ADC | 3.939 | -0.071 | 15
medium (conditioned by secondary species or non-conditioned control): MH broth + LHB + NAD | 8.7 | -0.184 | 1.74
medium (conditioned by secondary species or non-conditioned control): MH broth + glucose | 19.7 | -0.432 | 1.2
medium (conditioned by secondary species or non-conditioned control): R. mannitolilytica | 72.8 (≈ 159 µM) | -0.649 | 0.909
medium (conditioned by secondary species or non-conditioned control): S. aureus | 87.8 (≈ 192 µM) | -0.776 | 0.785
medium (conditioned by secondary species or non-conditioned control): S. maltophilia | 81 (≈ 177 µM) | -0.713 | 0.781
medium (conditioned by secondary species or non-conditioned control): S. pneumoniae | 4.82 (≈ 10.5 µM) | -0.0595 | 2.06

CO[C@H]1/C=C/O[C@@]2(C)Oc3c(C)c(O)c4c(O)c(c(/C=N/N5CCN(C)CC5)c(O)c4c3C2=O)NC(=O)/C(C)=C\C=C\[C@H](C)[C@H](O)[C@@H](C)[C@@H](O)[C@@H](C)[C@H](OC(C)=O)[C@@H]1C [rifampicin]
Conditions | EC50, [2] [µg/mL] | Emax, [1] | Hill coefficient, [3]
medium (conditioned by secondary species or non-conditioned control): A. baumannii | 58.4 (≈ 71 µM) | -0.428 | 2.64
medium (conditioned by secondary species or non-conditioned control): A. fumigatus | 16.6 (≈ 20.2 µM) | -0.427 | 1.865
medium (conditioned by secondary species or non-conditioned control): A. xylosoxidans | 60.8 (≈ 73.9 µM) | -0.447 | 3.63
medium (conditioned by secondary species or non-conditioned control): B. cepacia | 53.9 (≈ 65.4 µM) | -0.4437 | 4.03
medium (conditioned by secondary species or non-conditioned control): C. albicans | 26.5 (≈ 32.2 µM) | -0.543 | 2.68
medium (conditioned by secondary species or non-conditioned control): H. influenzae | 18.7 (≈ 22.7 µM) | -0.165 | 5.03
medium (conditioned by secondary species or non-conditioned control): M. abcessus | 43.2 (≈ 52.5 µM) | -0.468 | 2.15
medium (conditioned by secondary species or non-conditioned control): M. avium | 72 (≈ 87.5 µM) | -1.04 | 0.999
medium (conditioned by secondary species or non-conditioned control): M. catarrhalis | 58.7 (≈ 71.4 µM) | -0.151 | 2.74
medium (conditioned by secondary species or non-conditioned control): MH broth | 31.7 (≈ 38.5 µM) | -0.425 | 2.61
medium (conditioned by secondary species or non-conditioned control): MH broth + ADC | 83.3 | -1.1 | 0.89
medium (conditioned by secondary species or non-conditioned control): MH broth + LHB + NAD | 25.2 | -0.141 | 3.8
medium (conditioned by secondary species or non-conditioned control): MH broth + glucose | 26.7 | -0.552 | 2.46
medium (conditioned by secondary species or non-conditioned control): R. mannitolilytica | 40.4 (≈ 49 µM) | -0.4494 | 5.28
medium (conditioned by secondary species or non-conditioned control): S. aureus | 43.6 (≈ 53 µM) | -0.461 | 2.1
medium (conditioned by secondary species or non-conditioned control): S. maltophilia | 51.8 (≈ 62.9 µM) | -0.437 | 3.3
medium (conditioned by secondary species or non-conditioned control): S. pneumoniae | 20.8 (≈ 25.3 µM) | -0.142 | 4.69
